Experimental data published in patent EP0410244A1, “Leukotriene antagonists” (BAYER AG, priority 1989, dated 1991).

Test system: LTC₄ induced contraction of guinea-pig ileum
Experiment: Inhibition of leukotriene (LTC₄) induced contraction of guinea-pig ileum in vitro
Type: cell-based, guinea-pig (Male Dunkin-Hartley strain)
Settings: Cavia porcellus
Method: The leukotriene antagonist activity of the compounds of this invention is measured by the ability of the compounds to inhibit the leukotriene induced contraction of guinea-pig ileum in vitro as described below.
Five (5) centimeter longitudinal strips of guinea-pig ileum (Male Dunkin-Hartley strain) were bathed in modified Tyrodes buffer, containing 3µM indomethacin, in jacketed 10 mL tissue baths at 37°C and continuously aerated with 95% O₂/5% CO₂. The tissues were connected via cotton sutures to isotonic transducers. The tissues were equilibrated for 60 minutes and 100µM histamine was added to determine the maximal response of the tissues. This was removed by washout to give a steady baseline. Then the test compound, or vehicle control, was added cumulatively in half-log units until a bath concentration of 10µM was reached.
After a further equilibration period of 15 minutes, a concentration response curve to the reference agonist (LTD₄ or LTC₄) was generated. All determinations were carried out in triplicate and observations normalised against the maximal leukotriene response. Least-squares linear regression analysis was then used to calculate the concentration of leukotriene needed to elicit 50% of the maximum response and defined as the EC₅₀. […]
All compounds were measured against LTD₄ as the reference agonists except the compound of Example 65 which were measured against LTC₄.

CCCCC/C=C\C\C=C/C=C/C=C/[C@@H](Sc1ccc(C(=O)O)cc1)[C@@](C)(O)CCCC(=O)O [Example 65, 5S-Hydroxy-5-methyl-6R-(4-carboxyphenylthio)eicosa-7E,9E,11Z,14Z-tetraenoic Acid]
Kb: 398 nM
